Measured values published in US10829464B2, “Benzoheterocyclic alkylamine compounds and use thereof” (priority 2016, dated 2020).
Values after ≈ are worked out from the molar mass of the structure shown. Like-named read-outs stand apart in the source and are kept apart here.

Legend:
S. aureus = assay: Hydrogen peroxide killing assay; assay type: cell-based, Staphylococcus aureus; conditions: four strains, 1.5% hydrogen peroxide, 1 h
From the text: Compound IA-25 was used as a representative compound. The main object of the invention was to impair the ability of bacteria to resist immunological killing in vivo by inhibiting staphyloxanthins synthesis.
The calculated survival rate of bacteria after hydrogen peroxide killing=(count of bacteria grown in sample after hydrogen peroxide killing×dilution factor)/(count of bacteria grown in control group×dilution factor)×100%.

CYP enzyme subtype 3A4M = CYP enzyme subtype 3A4M (Homo sapiens, UniProt P08684); assay: Inhibition assay on hepatic CYP450 enzyme; assay type: in vitro ADME; conditions: CYP 3A4M; read-out: Half inhibitory concentration (IC50)
CYP enzyme subtype 2D6 = CYP enzyme subtype 2D6 (Homo sapiens, UniProt P10635); assay: Inhibition assay on hepatic CYP450 enzyme; assay type: in vitro ADME; conditions: CYP 2D6; read-out: Half inhibitory concentration (IC50)
LRSA56 = assay: In vivo pharmacodynamics evaluation in infected mice; conditions: BALB/c mice infected retroorbitally with LRSA56
Method: (§1) Compound IA-25 was used as a representative compound. The laboratory SPF-grade female BALB/c mice were purchased from Shanghai Jiesijie Laboratory Animal Co., Ltd. and bred under aseptic condition to 6-8 weeks old. The S. aureus strains which had been cultured overnight were transferred to fresh and sterile TSB medium and cultured at 37° C. and 250 rpm for 3 h to exponential growth phase; the culture was washed twice with PBS buffer, and then suspended in PBS for later use. In the mouse infection assay, the mice were divided into several groups, each containing 10 mice.

Mu50 = assay: as above; conditions: BALB/c mice infected retroorbitally with Mu50
Method: as §1

NF65Y = assay: as above; conditions: BALB/c mice infected retroorbitally with NF65Y
Method: as §1

NRS271 = assay: as above; conditions: BALB/c mice infected retroorbitally with NRS271
Method: as §1

LRSA202 = assay: as above; conditions: BALB/c mice infected retroorbitally with LRSA202
Method: as §1

strain Newman = assay: as above; conditions: BALB/c mice infected retroorbitally with Newman
Method: as §1

NRS108 = assay: as above; conditions: BALB/c mice infected retroorbitally with NRS108
Method: as §1

CYP enzyme subtype 3A4T = CYP enzyme subtype 3A4T (Homo sapiens, UniProt P08684); assay: Inhibition assay on hepatic CYP450 enzyme; assay type: in vitro ADME; conditions: CYP 3A4T; read-out: Half inhibitory concentration (IC50)
CYP enzyme subtype 2C9 = CYP enzyme subtype 2C9 (Homo sapiens, UniProt P11712); assay: Inhibition assay on hepatic CYP450 enzyme; assay type: in vitro ADME; conditions: CYP 2C9; read-out: Half inhibitory concentration (IC50)
LRSA56 (CHN) = assay: IC50 of inhibition of staphyloxanthin synthesis in MRSA strain; assay type: cell-based; conditions: Staphylococcus aureus, read-out: Inhibitory activity on staphyloxanthin IC50
Method: (§2) Selection of compound concentrations: based on the preliminary screening results, the ability of each compound to inhibit staphyloxanthin synthesis was determined. […] According to the assay results, 10 different concentration gradients were designed for each compound, such that the ability to inhibit staphyloxanthin synthesis comprised substantially from 0% to 100%.
(§3) Culture of the strains: single colonies of strain Newman and crtN mutant strain were picked from TSA plates, added into test tubes containing 4 mL of sterile TSB medium, and cultured at 37° C. and 250 rpm for 12 h for later use.
(§4) The relative level of staphyloxanthin synthesis at each concentration of the compound of the invention=A450 (sample)/A450 (negative control)*100%. With the molar concentration of the compound as the abscissa and the relative level of staphyloxanthin synthesis as the ordinate, a curve fitting of inhibitor concentration-inhibition rate (log(inhibitor) vs response) was performed in Graphpad prism 5.0 software, and the IC50 of the compound for inhibiting staphyloxanthin synthesis was calculated by software based on the fitting results.
(§5) Compound IA-25 was used as a representative compound. In addition to replacement of S aureus strain Newman with other MRSA strains as described in Table 3, the rest of the method is the same as in Examples 61-62.

LRSA205 (CHN) = assay: as above; assay type: cell-based; conditions: Staphylococcus aureus, read-out: Inhibitory activity on staphyloxanthin IC50
Method: as §2, §3, §4, §5

LRSA202 (CHN) = assay: as above; assay type: cell-based; conditions: Staphylococcus aureus, read-out: Inhibitory activity on staphyloxanthin IC50
Method: as §2, §3, §4, §5

XN108 (CHN) = assay: as above; assay type: cell-based; conditions: Staphylococcus aureus, read-out: Inhibitory activity on staphyloxanthin IC50
Method: as §2, §3, §4, §5

NF65Y (CHN) = assay: as above; assay type: cell-based; conditions: Staphylococcus aureus, read-out: Inhibitory activity on staphyloxanthin IC50
Method: as §2, §3, §4, §5

NRS70 (JPN) = assay: as above; assay type: cell-based; conditions: Staphylococcus aureus, NRS70, read-out: Inhibitory activity on staphyloxanthin IC50
Method: as §2, §3, §4, §5

NRS108 (FRA) = assay: as above; assay type: cell-based; conditions: Staphylococcus aureus, NRS108, read-out: Inhibitory activity on staphyloxanthin IC50
Method: as §2, §3, §4, §5

NRS100 (USA) = assay: as above; assay type: cell-based; conditions: Staphylococcus aureus, NRS100, read-out: Inhibitory activity on staphyloxanthin IC50
Method: as §2, §3, §4, §5

NRS271 (SPA) = assay: as above; assay type: cell-based; conditions: Staphylococcus aureus, NRS271, read-out: Inhibitory activity on staphyloxanthin IC50
Method: as §2, §3, §4, §5

HS663 (CHN) = assay: as above; assay type: cell-based; conditions: Staphylococcus aureus, read-out: Inhibitory activity on staphyloxanthin IC50
Method: as §2, §3, §4, §5

[1] = test system: wild-type S. aureus Newman strain; assay: Verification assay using CrtN as a target (HPLC of carotenoid extract); assay type: cell-based, Staphylococcus aureus; conditions: 100 μM added to wild-type strain Newman, 440 nm
CrtN = CrtN (Staphylococcus aureus, UniProt O07855); assay: biochemical
Method: (1) Preparation of Diapophytoene Emulsion as Substrate […]
After completion of the reaction, the reaction was terminated by adding 500 μL of methanol, and the reaction solution was transferred to a 15 mL centrifuge tube; the reaction solution was added with 700 μL of chloroform, and vortexed thoroughly to extract the reacted staphyloxanthin, and then centrifuged at 7000 rpm for 3 min, and the chloroform layer was carefully pipetted; the remaining reaction solution was extracted by further adding 500 μL of chloroform thereto, and the extracts were combined and concentrated to dryness under vacuum; the concentrated product was dissolved by adding 200 μL of chloroform, and pipetted into a 96-well microplate, and then the absorbance was measured at 450 nm for quantification of the CrtN product diaponeurosporene.

Tinea barbae = assay: In vitro antifungal assay (micro liquid-based dilution); assay type: cell-based; conditions: read-out: Antifungal Activities, MIC80
Trichophyton rubrum = assay: as above; assay type: cell-based; conditions: read-out: Antifungal Activities, MIC80
S. aureus strain Newman = assay: IC50 determination of inhibition of staphyloxanthin synthesis; assay type: cell-based; conditions: Staphylococcus aureus
Method: as §2, §3, §4
S. aureus was selected for IC50 determination with respect to activity of inhibiting staphyloxanthin synthesis. […]

Microsporum gypseum = assay: In vitro antifungal assay (micro liquid-based dilution); assay type: cell-based; conditions: Nannizzia gypsea, read-out: Antifungal Activities, MIC80

CYP enzyme subtype 3A4T, sequence (P08684 whole entry): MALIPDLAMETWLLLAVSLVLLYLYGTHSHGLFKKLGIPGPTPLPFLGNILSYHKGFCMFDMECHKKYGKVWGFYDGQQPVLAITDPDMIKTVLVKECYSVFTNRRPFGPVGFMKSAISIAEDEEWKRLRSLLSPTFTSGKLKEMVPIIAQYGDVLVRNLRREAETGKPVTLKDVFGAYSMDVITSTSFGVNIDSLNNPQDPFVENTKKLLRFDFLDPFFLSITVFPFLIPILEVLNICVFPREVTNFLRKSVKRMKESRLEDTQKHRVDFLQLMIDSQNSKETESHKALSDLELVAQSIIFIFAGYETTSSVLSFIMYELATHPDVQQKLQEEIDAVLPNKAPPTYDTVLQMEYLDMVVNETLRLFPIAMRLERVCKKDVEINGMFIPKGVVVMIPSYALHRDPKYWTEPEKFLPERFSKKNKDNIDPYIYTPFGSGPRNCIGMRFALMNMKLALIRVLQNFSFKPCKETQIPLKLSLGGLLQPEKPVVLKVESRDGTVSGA
CYP enzyme subtype 3A4M, sequence (P08684 whole entry): as above
CrtN, sequence (O07855 whole entry): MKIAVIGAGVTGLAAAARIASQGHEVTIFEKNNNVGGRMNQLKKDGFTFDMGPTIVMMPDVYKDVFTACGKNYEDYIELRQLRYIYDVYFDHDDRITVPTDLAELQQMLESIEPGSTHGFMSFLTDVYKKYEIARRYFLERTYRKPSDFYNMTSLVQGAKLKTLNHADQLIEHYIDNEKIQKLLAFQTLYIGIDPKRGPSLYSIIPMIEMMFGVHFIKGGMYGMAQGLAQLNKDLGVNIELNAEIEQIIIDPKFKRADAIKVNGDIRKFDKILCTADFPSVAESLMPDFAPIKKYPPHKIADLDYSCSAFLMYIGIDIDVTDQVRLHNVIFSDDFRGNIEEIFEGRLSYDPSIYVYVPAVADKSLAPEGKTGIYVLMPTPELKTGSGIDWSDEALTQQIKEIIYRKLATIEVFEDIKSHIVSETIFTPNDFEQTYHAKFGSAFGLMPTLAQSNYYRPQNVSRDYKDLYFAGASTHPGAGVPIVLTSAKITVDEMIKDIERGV
CYP enzyme subtype 2D6, sequence (P10635 whole entry): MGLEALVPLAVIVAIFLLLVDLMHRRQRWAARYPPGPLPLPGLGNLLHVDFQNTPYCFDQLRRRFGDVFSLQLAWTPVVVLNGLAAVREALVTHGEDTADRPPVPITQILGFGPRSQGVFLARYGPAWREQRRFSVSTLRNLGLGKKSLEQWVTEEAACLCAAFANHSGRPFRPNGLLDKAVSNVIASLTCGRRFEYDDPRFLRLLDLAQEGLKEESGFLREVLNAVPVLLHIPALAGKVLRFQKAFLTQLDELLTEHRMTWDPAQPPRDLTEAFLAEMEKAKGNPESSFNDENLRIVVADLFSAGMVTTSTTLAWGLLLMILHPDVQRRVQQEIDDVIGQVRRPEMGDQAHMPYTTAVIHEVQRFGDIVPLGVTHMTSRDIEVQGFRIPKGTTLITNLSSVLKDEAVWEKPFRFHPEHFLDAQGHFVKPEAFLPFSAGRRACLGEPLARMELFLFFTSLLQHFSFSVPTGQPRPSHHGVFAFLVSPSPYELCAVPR
CYP enzyme subtype 2C9, sequence (P11712 whole entry): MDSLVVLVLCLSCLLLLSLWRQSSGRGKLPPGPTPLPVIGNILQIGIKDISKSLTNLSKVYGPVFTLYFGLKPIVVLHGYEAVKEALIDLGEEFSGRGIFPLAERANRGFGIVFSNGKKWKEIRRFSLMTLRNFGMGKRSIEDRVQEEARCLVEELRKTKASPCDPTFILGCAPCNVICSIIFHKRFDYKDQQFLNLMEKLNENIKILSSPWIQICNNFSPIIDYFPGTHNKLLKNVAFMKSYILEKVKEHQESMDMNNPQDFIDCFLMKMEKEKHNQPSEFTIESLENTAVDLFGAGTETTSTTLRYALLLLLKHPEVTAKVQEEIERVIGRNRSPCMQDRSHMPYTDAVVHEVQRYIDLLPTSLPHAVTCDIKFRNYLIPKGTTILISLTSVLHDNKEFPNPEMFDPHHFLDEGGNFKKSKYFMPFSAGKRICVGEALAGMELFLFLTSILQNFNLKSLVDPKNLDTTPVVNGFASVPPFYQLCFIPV

SMILES: CN(C/C=C/c1ccc(-c2ccccc2)cc1)Cc1coc2ccccc12 [Compound IA-25, (E)-N-methyl-N-[(benzofuran-3-yl)methylene]-3-(4-phenylphenyl)-prop-2-en-1-amine]
- bacterial survival rate after hydrogen peroxide killing (S. aureus): less than 5%
- IC50 (CYP enzyme subtype 3A4M): > 10000 nM
- IC50 (CYP enzyme subtype 2D6): 3200 nM
- Viable colony counts in vivo (LRSA56): 3.3 Log10CFU
- Viable colony counts in vivo (Mu50): 2.7 Log10CFU
- Viable colony counts in vivo (NF65Y): 3.5 Log10CFU
- Viable colony counts in vivo (NRS271): 6.4 Log10CFU
- Viable colony counts in vivo (LRSA202): 4.9 Log10CFU
- Viable colony counts in vivo (strain Newman): 3.8 Log10CFU
- Viable colony counts in vivo (NRS108): 2.3 Log10CFU
- IC50 (CYP enzyme subtype 3A4T): > 10000 nM
- IC50 (CYP enzyme subtype 2C9): > 10000 nM
- IC50 (LRSA56 (CHN)): 1.8 ± 0.1 nM
- IC50 (LRSA205 (CHN)): 10.5 ± 0.4 nM
- IC50 (LRSA202 (CHN)): 1.6 ± 0.2 nM
- IC50 (XN108 (CHN)): 0.2 ± 0.04 nM
- IC50 (NF65Y (CHN)): 1 ± 0.02 nM
- IC50 (NRS70 (JPN)): 1.7 ± 0.01 nM
- IC50 (NRS108 (FRA)): 5.6 ± 0.02 nM
- IC50 (NRS100 (USA)): 1.2 ± 0.1 nM
- IC50 (NRS271 (SPA)): 0.4 ± 0.01 nM
- IC50 (HS663 (CHN)): 0.02 ± 0.01 nM
- HPLC absorption peaks of carotenoid extract [1]: absorption peaks at the original peak position disappeared again
- IC50 (CrtN): 373 nM
- MIC80 (Tinea barbae): > 64 µg/mL
- MIC80 (Trichophyton rubrum): 64 µg/mL (≈ 181 µM)
- IC50 (S. aureus strain Newman; Newman, Table 3, read-out: Inhibitory activity on staphyloxanthin IC50): 2 ± 0.1 nM
- IC50 (S. aureus strain Newman; S. aureus strain Newman, Table 1, read-out: IC50, inhibitory activity on staphyloxanthin synthesis): 2 ± 0.1 nM
- MIC80 (Microsporum gypseum): 32 µg/mL (≈ 90.5 µM)
